{"source": "patent US12678387B2", "about": "“Composition for alleviating hair loss or promoting hair growth” (LG HOUSEHOLD & HEALTH CARE LTD., priority 2020, dated 2026)", "key": {"[1]": {"system": "Human-derived dermal papilla cells (DPCs)", "test": "Enhancement of activity of dermal papilla cells (CCK-8 method)", "format": "cell-based", "conditions": "for Activity of dermal papilla cells (%): 10 μg/mL, incubated for a day, percentage of the control group as 100; for Effect on activity and proliferation of dermal papilla cells (in words): summary of Table 3", "method": "Human-derived dermal papilla cells (DPCs) were purchased from PromoCell. The DPCs were cultured in DMEM (Hyclone Inc., UT, USA) containing 5% fetal bovine serum (FBS; GIBCO, NY, USA), 100 units/mL penicillin and 100 μg/mL streptomycin under the condition of 37° C. and 5% CO2. The cultured DPCs were seeded onto a 96-well plate at 3,000 cells/well and then cultured for 24 hours under a 0.1% serum condition. […] After the incubation, the enhancement of cellular activity was evaluated by the CCK method. The cell culture was treated and incubated with CCK-8 at 1:10 for 1 hour. 1 hour later, the absorbance of each well was measured at 450 nm. All the experiments were 3 times and the absorbance was averaged. The result was expressed as percentage of the control group as 100."}, "[2]": {"system": "Human-derived dermal papilla cells (DPCs)", "test": "Enhancement of mitochondrial activity of dermal papilla cells (JC-1 method)", "format": "cell-based", "conditions": "for Mitochondrial activity of dermal papilla cells (%): 10 μg/mL, incubated for a day, percentage of the control group as 100; for Effect on mitochondrial activity of dermal papilla cells (in words): summary of Table 4", "method": "Human-derived dermal papilla cells (DPCs) were purchased from PromoCell. The DPCs were cultured in DMEM (Hyclone Inc., UT, USA) containing 5% fetal bovine serum (FBS; GIBCO, NY, USA), 100 units/mL penicillin and 100 μg/mL streptomycin under the condition of 37° C. and 5% CO2. The cultured DPCs were seeded onto a 96-well plate at 3,000 cells/well and then cultured for 24 hours under a 0.1% serum condition. […] After the incubation, the degree of cell proliferation was evaluated by the JC-1 method. The cell culture was treated and incubated with JC-1 at 1:100 for 1 hour. 1 hour later, the fluorescence of each well was measured at 590 nm and 530 nm. All the experiments were 3 times and the fluorescence intensity was averaged. The result was expressed as percentage of the control group as 100."}, "androgen receptor": {"system": "androgen receptor", "test": "Androgenic activity: MMTV-Luc transcriptional activation assay in 22Rv1 cells with DHT", "format": "cell-based, human", "conditions": "for Inhibition of androgenic activity (%): 10 μg/mL together with 1 nM DHT, 24 hours", "method": "The stable cell line was maintained by subculturing using RPMI1640 and 10% fetal bovine serum (GIBCO BRL, Gaithersburg, MD, USA). For transcriptional activation assay, the cells were seeded in a 96-well plate, with 25,000 cells per well, while replacing the medium with phenol red-free RPMI1640 containing 5% charcoal-stripped fetal bovine serum. […] The cell culture was treated and incubated with CCK-8 at 1:10 for 2 hours. 2 hour later, the absorbance of each well was measured at 450 nm. All the experiments were 3 times and the absorbance was averaged."}}}
{"molecule": "CC(C)C1=CC(=O)C(C)(C2C(O)CC3(C)C4CC=C5C(CCC(OC6OC(CO)C(O)C(O)C6OC6OC(C)C(O)C(O)C6O)C5(C)C)C4(C)C(=O)CC23C)O1", "note": "(stereo not shown) [Picfeltarraenin IB, picfeltarraenin IB]", "values": [{"measurement": "Activity of dermal papilla cells (%)", "setting": "[1]", "value": 139, "unit": "%"}, {"measurement": "Effect on activity and proliferation of dermal papilla cells (in words)", "setting": "[1]", "value": "superior effect of enhancing the activity of dermal papilla cells"}]}
{"molecule": "asiaticoside B", "values": [{"measurement": "Activity of dermal papilla cells (%)", "setting": "[1]", "value": 131, "unit": "%"}, {"measurement": "Effect on activity and proliferation of dermal papilla cells (in words)", "setting": "[1]", "value": "superior effect of enhancing the activity of dermal papilla cells"}, {"measurement": "Mitochondrial activity of dermal papilla cells (%)", "setting": "[2]", "value": 151, "unit": "%"}, {"measurement": "Effect on mitochondrial activity of dermal papilla cells (in words)", "setting": "[2]", "value": "superior effect of enhancing the mitochondrial activity"}, {"measurement": "Inhibition of androgenic activity (%)", "setting": "androgen receptor", "value": 6, "unit": "%"}]}
{"molecule": "CC(C)=CCC[C@](C)(O[C@@H]1O[C@H](CO)[C@@H](O)[C@H](O)[C@H]1O)[C@H]1CC[C@]2(C)[C@@H]1[C@H](O)C[C@@H]1[C@@]3(C)CC[C@H](O[C@@H]4O[C@H](CO)[C@@H](O)[C@H](O)[C@H]4O[C@@H]4O[C@H](CO)[C@@H](O)[C@H](O)[C@H]4O)C(C)(C)[C@@H]3[C@@H](O)C[C@]12C", "note": "[Vina-ginsenoside R4, vina-ginsenoside R4]", "values": [{"measurement": "Activity of dermal papilla cells (%)", "setting": "[1]", "value": 137, "unit": "%"}, {"measurement": "Effect on activity and proliferation of dermal papilla cells (in words)", "setting": "[1]", "value": "superior effect of enhancing the activity of dermal papilla cells"}, {"measurement": "Mitochondrial activity of dermal papilla cells (%)", "setting": "[2]", "value": 111, "unit": "%"}, {"measurement": "Effect on mitochondrial activity of dermal papilla cells (in words)", "setting": "[2]", "value": "superior effect of enhancing the mitochondrial activity"}, {"measurement": "Inhibition of androgenic activity (%)", "setting": "androgen receptor", "value": 4, "unit": "%"}]}
{"molecule": "C[C@@H]1O[C@@H](O[C@H]2[C@H](O[C@H]3[C@H](O[C@H]4CC[C@]5(C)[C@H]6CC=C7[C@@H]8CC(C)(C)CC[C@]8(C(=O)O)CC[C@@]7(C)[C@]6(C)CC[C@H]5C4(C)C)OC[C@H](O)[C@@H]3O)O[C@H](CO)[C@@H](O)[C@@H]2O)[C@H](O)[C@H](O)[C@H]1O", "note": "[Raddeanin A, raddeanin A]", "values": [{"measurement": "Activity of dermal papilla cells (%)", "setting": "[1]", "value": 130, "unit": "%"}, {"measurement": "Effect on activity and proliferation of dermal papilla cells (in words)", "setting": "[1]", "value": "superior effect of enhancing the activity of dermal papilla cells"}, {"measurement": "Inhibition of androgenic activity (%)", "setting": "androgen receptor", "value": 10, "unit": "%"}]}
{"molecule": "CC(C)=CCC[C@](C)(O)[C@H]1CC[C@]2(C)[C@@H]1[C@H](O)C[C@@H]1[C@@]3(C)CC[C@H](O)C(C)(C)[C@@H]3[C@@H](O[C@@H]3O[C@H](CO)[C@@H](O)[C@H](O)[C@H]3O[C@@H]3OC[C@@H](O)[C@H](O)[C@H]3O)C[C@]12C", "note": "[Notoginsenoside R2, notoginsenoside R2]", "values": [{"measurement": "Activity of dermal papilla cells (%)", "setting": "[1]", "value": 131, "unit": "%"}, {"measurement": "Effect on activity and proliferation of dermal papilla cells (in words)", "setting": "[1]", "value": "superior effect of enhancing the activity of dermal papilla cells"}, {"measurement": "Mitochondrial activity of dermal papilla cells (%)", "setting": "[2]", "value": 117, "unit": "%"}, {"measurement": "Effect on mitochondrial activity of dermal papilla cells (in words)", "setting": "[2]", "value": "superior effect of enhancing the mitochondrial activity"}, {"measurement": "Inhibition of androgenic activity (%)", "setting": "androgen receptor", "value": 29, "unit": "%"}, {"measurement": "Effect of inhibiting androgenic activity (in words)", "setting": "androgen receptor; summary of Table 6", "value": "superior effect of inhibiting androgenic activity"}]}
{"molecule": "C[C@@H]1CC[C@]2(C(=O)O)CC[C@]3(C)C(=CC[C@@H]4[C@@]5(C)CC[C@H](O[C@@H]6OC[C@H](O)[C@H](O)[C@H]6O)C(C)(C)[C@@H]5CC[C@]43C)[C@@H]2[C@]1(C)O", "note": "[Ziyuglycoside II, ziyuglycoside II]", "values": [{"measurement": "Activity of dermal papilla cells (%)", "setting": "[1]", "value": 139, "unit": "%"}, {"measurement": "Effect on activity and proliferation of dermal papilla cells (in words)", "setting": "[1]", "value": "superior effect of enhancing the activity of dermal papilla cells"}, {"measurement": "Mitochondrial activity of dermal papilla cells (%)", "setting": "[2]", "value": 105, "unit": "%"}, {"measurement": "Effect on mitochondrial activity of dermal papilla cells (in words)", "setting": "[2]", "value": "superior effect of enhancing the mitochondrial activity"}]}
